Reference: patent US8343963B2, “Sulfamoyl-phenyl-ureido compounds and their use as medicament” (4SC AG, priority 2009, dated 2013)

Tested on: multiresistant Dd2 strain of Plasmodium falciparum
Assay: Antiplasmodial activity against Dd2 strain of Plasmodium falciparum ([8-3H]hypoxanthine incorporation)
Assay type: cell-based
Conditions: 66 h, P. falciparum Dd2, 48 h + 18 h with [8-3H]hypoxanthine, 50% parasite growth inhibition, read-out: Antiplasmodia activity (IC50 class)
Protocol: For the determination of the antiplasmodial activity of the compounds described above, the multiresistant Dd2 strain of Plasmodium falciparum was used. The incorporation of [8-^3H]hypoxanthine into the parasitic nucleic acids was measured. The plasmodia were incubated at 0.3% parasitaemia and an erythrocyte haematocrit of 2.5% in the presence of different concentrations of the compounds in a final volume of 200 μl. The medium employed was RPMI 1640 which contained 10% of heat-treated human serum and 3 mg/l of gentamycin. In the incubations, the concentrations of the compounds varied from 0.001 to 100 μM. After 48 h, each batch was treated with 50 μl of [8-^3H]hypoxanthine (1 mCi/ml) and incubated for a further 18 h. The cells were filtered off, washed and suspended in 20 μl of scintillation fluid. The radioactive hypoxanthine absorbed by the parasites was then quantified using a scintillation counter. The results were presented graphically and the IC50 value was determined using a fitting function. The value IC50, the ‘inhibition constant’, indicates the value in μMol/l at which 50% parasite growth inhibition occurs (R. E. Desjardins, et al., Antimicrobiol. Agent Chemother. 16, pp. 710-718, 1979; J. D. Chulay, et al., Exp. Parasitol. 55, pp. 138-146, 1983).

Structure (SMILES)	IC50
N=C(c1cccc(NC(=O)Nc2ccc(S(N)(=O)=O)cc2)c1)N1CCC(O)CC1 [Compound 2, 4-(3-(3-((4-hydroxypiperidin-1-yl)(imino)methyl)phenyl)ureido)benzenesulfonamide]	≥ 1000 nM
N=C(c1cccc(NC(=O)Nc2ccc(S(N)(=O)=O)cc2)c1)N1CCNCC1 [Compound 3, 4-(3-(3-(imino(piperazin-1-yl)methyl)phenyl)ureido)benzenesulfonamide]	≥ 1000 nM
CCCCN1CCN(C(=N)c2cccc(NC(=O)Nc3ccc(S(=O)(=O)c4ccc(Br)cc4)cc3)c2)CC1 [Compound 4, 1-(4-(4-bromophenylsulfonyl)phenyl)-3-(3-((4-butylpiperazin-1-yl)(imino)methyl)phenyl)urea]	210 to 990 nM
N=C(c1cccc(NC(=O)Nc2ccc(S(=O)(=O)c3ccc(Br)cc3)cc2)c1)N1CCC(O)CC1 [Compound 5, 1-(4-(4-bromophenylsulfonyl)phenyl)-3-(3-((4-hydroxypiperidin-1-yl)(imino)methyl)phenyl)urea]	20 to 200 nM
N=C(c1cccc(NC(=O)Nc2ccc(S(=O)(=O)c3ccc([N+](=O)[O-])cc3)cc2)c1)N1CCOCC1 [Compound 6, 1-(3-(imino(morpholino)methyl)phenyl)-3-(4-(4-nitrophenylsulfonyl)phenyl)urea]	20 to 200 nM
N=C(c1cccc(NC(=O)Nc2ccc(S(=O)(=O)c3ccc([N+](=O)[O-])cc3)cc2)c1)N1CCCC1 [Compound 7, 1-(3-(imino(pyrrolidin-1-yl)methyl)phenyl)-3-(4-(4-nitrophenylsulfonyl)phenyl)urea]	20 to 200 nM
CN1CCN(C(=N)c2cccc(NC(=O)Nc3ccc(S(=O)(=O)c4ccc([N+](=O)[O-])cc4)cc3)c2)CC1 [Compound 8, 1-(3-(imino(4-methylpiperazin-1-yl)methyl)phenyl)-3-(4-(4-nitrophenylsulfonyl)phenyl)urea]	≥ 1000 nM
N=C(c1cccc(NC(=O)Nc2ccc(S(=O)(=O)c3ccc([N+](=O)[O-])cc3)cc2)c1)N1CCSC1 [Compound 9, 1-(3-(imino(thiazolidin-3-yl)methyl)phenyl)-3-(4-(4-nitrophenylsulfonyl)phenyl)urea]	≥ 1000 nM
N=C(c1cccc(NC(=O)Nc2ccc(S(=O)(=O)c3ccc([N+](=O)[O-])cc3)cc2)c1)N1CCC(O)CC1 [Compound 10, 1-(3-((4-hydroxypiperidin-1-yl)(imino)methyl)phenyl)-3-(4-(4-nitrophenylsulfonyl)phenyl)urea]	20 to 200 nM
N=C(c1cccc(NC(=O)Nc2ccc(S(=O)(=O)c3ccc(Cl)cc3)cc2)c1)N1CCC(O)CC1 [Compound 11, 1-(4-(4-chlorophenylsulfonyl)phenyl)-3-(3-((4-hydroxypiperidin-1-yl)(imino)methyl)phenyl)urea]	20 to 200 nM
N=C(c1cccc(NC(=O)Nc2ccc(S(=O)(=O)c3ccc(Br)cc3)cc2)c1)N1CCC(CO)CC1 [Compound 12, 1-(4-(4-bromophenylsulfonyl)phenyl)-3-(3-((4-(hydroxymethyl)piperidin-1-yl)(imino)methyl)phenyl)urea]	≥ 1000 nM
COCCN(CCOC)C(=N)c1cccc(NC(=O)Nc2ccc(S(=O)(=O)c3ccc(Br)cc3)cc2)c1 [Compound 13, 3-(3-(4-(4-bromophenylsulfonyl)phenyl)ureido)-N,N-bis(2-methoxyethyl)benzimidamide]	≥ 1000 nM
N=C(c1cccc(NC(=O)Nc2ccc(S(=O)(=O)c3ccc(Br)cc3)cc2)c1)N1CCSCC1 [Compound 14, 1-(4-(4-bromophenylsulfonyl)phenyl)-3-(3-(imino(thiomorpholino)methyl)phenyl)urea]	20 to 200 nM
N=C(c1cccc(NC(=O)Nc2ccc(S(=O)(=O)c3ccc(Br)cc3)cc2)c1)N1CCCC1 [Compound 15, 1-(4-(4-bromophenylsulfonyl)phenyl)-3-(3-(imino(pyrrolidin-1-yl)methyl)phenyl)urea]	20 to 200 nM
N=C(c1cccc(NC(=O)Nc2ccc(S(=O)(=O)c3ccc(Br)cc3)cc2)c1)N1CCC(C(N)=O)CC1 [Compound 16, 1-((3-(3-(4-(4-bromophenylsulfonyl)phenyl)ureido)phenyl)(imino)methyl)piperidine-4-carboxamide]	20 to 200 nM
N=C(c1cccc(NC(=O)Nc2ccc(S(=O)(=O)c3ccc(N)cc3)cc2)c1)N1CCC(O)CC1 [Compound 17, 1-(4-(4-aminophenylsulfonyl)phenyl)-3-(3-((4-hydroxypiperidin-1-yl)(imino)methyl)phenyl)urea]	≥ 1000 nM

Structure (SMILES)	IC50
CCCCN1CCN(C(=N)c2cccc(NC(=O)Nc3ccc(S(=O)(=O)NC)cc3)c2)CC1 [Compound 18, 4-(3-(3-((4-butylpiperazin-1-yl)(imino)methyl)phenyl)ureido)-N-methylbenzenesulfonamide]	≥ 1000 nM
CCCCN1CCN(C(=N)c2cccc(NC(=O)Nc3ccc(S(=O)(=O)NCCC)cc3)c2)CC1 [Compound 19, 4-(3-(3-((4-butylpiperazin-1-yl)(imino)methyl)phenyl)ureido)-N-propylbenzenesulfonamide]	≥ 1000 nM
CCCCN1CCN(C(=N)c2cccc(NC(=O)Nc3ccc(S(=O)(=O)N(CCO)CCO)cc3)c2)CC1 [Compound 20, 4-(3-(3-((4-butylpiperazin-1-yl)(imino)methyl)phenyl)ureido)-N,N-bis(2-hydroxyethyl)benzenesulfonamide]	≥ 1000 nM
CCCCN1CCN(C(=N)c2cccc(NC(=O)Nc3ccc(S(=O)(=O)N4CCOCC4)cc3)c2)CC1 [Compound 21, 1-(3-((4-butylpiperazin-1-yl)(imino)methyl)phenyl)-3-(4-(morpholinosulfonyl)phenyl)urea]	≥ 1000 nM
CCCCN1CCN(C(=N)c2cccc(NC(=O)Nc3ccc(S(=O)(=O)Nc4ccnc5cc(Cl)ccc45)cc3)c2)CC1 [Compound 22, 4-(3-(3-((4-butylpiperazin-1-yl)(imino)methyl)phenyl)ureido)-N-(7-chloroquinolin-4-yl)benzenesulfonamide]	≥ 1000 nM
COC(=O)N1CCN(C(=N)c2cccc(NC(=O)Nc3ccc(S(=O)(=O)Nc4ccc(S(N)(=O)=O)cc4)cc3)c2)CC1 [Compound 24, methyl 4-(imino(3-(3-(4-(N-(4-sulfamoylphenyl)sulfamoyl)phenyl)ureido)phenyl)methyl)piperazine-1-carboxylate]	≥ 1000 nM
N=C(c1cccc(NC(=O)Nc2ccc(S(=O)(=O)Nc3ccc(S(N)(=O)=O)cc3)cc2)c1)N1CCOCC1 [Compound 25, 4-(3-(3-(imino(morpholino)methyl)phenyl)ureido)-N-(4-sulfamoylphenyl)benzenesulfonamide]	≥ 1000 nM
CN1CCN(C(=N)c2cccc(NC(=O)Nc3ccc(S(=O)(=O)Nc4ccc(S(N)(=O)=O)cc4)cc3)c2)CC1 [Compound 26, 4-(3-(3-(imino(4-methylpiperazin-1-yl)methyl)phenyl)ureido)-N-(4-sulfamoylphenyl)benzenesulfonamide]	≥ 1000 nM
N=C(c1cccc(NC(=O)Nc2ccc(S(=O)(=O)NCc3ccc(S(N)(=O)=O)cc3)cc2)c1)N1CCC(=O)CC1 [Compound 27, 4-(3-(3-(imino(4-oxopiperidin-1-yl)methyl)phenyl)ureido)-N-(4-sulfamoylbenzyl)benzenesulfonamide]	210 to 990 nM
N=C(c1cccc(NC(=O)Nc2ccc(S(=O)(=O)NCc3ccc(S(N)(=O)=O)cc3)cc2)c1)N1CCN(CCO)CC1 [Compound 28, 4-(3-(3-((4-(2-hydroxyethyl)piperazin-1-yl)(imino)methyl)phenyl)ureido)-N-(4-sulfamoylbenzyl)benzenesulfonamide]	20 to 200 nM
N=C(c1cccc(NC(=O)Nc2ccc(S(=O)(=O)NCc3ccc(S(N)(=O)=O)cc3)cc2)c1)N1CCC(CO)CC1 [Compound 29, 4-(3-(3-((4-(hydroxymethyl)piperidin-1-yl)(imino)methyl)phenyl)ureido)-N-(4-sulfamoylbenzyl)benzenesulfonamide]	210 to 990 nM
CCN(CCO)C(=N)c1cccc(NC(=O)Nc2ccc(S(=O)(=O)NCc3ccc(S(N)(=O)=O)cc3)cc2)c1 [Compound 30, N-ethyl-N-(2-hydroxyethyl)-3-(3-(4-(N-(4-sulfamoylbenzyl)sulfamoyl)phenyl)ureido)benzimidamide]	210 to 990 nM
N=C(c1cccc(NC(=O)Nc2ccc(S(=O)(=O)NCc3ccc(S(N)(=O)=O)cc3)cc2)c1)N1CCSCC1 [Compound 31, 4-(3-(3-(imino(thiomorpholino)methyl)phenyl)ureido)-N-(4-sulfamoylbenzyl)benzenesulfonamide]	210 to 990 nM
COCCN(CCOC)C(=N)c1cccc(NC(=O)Nc2ccc(S(=O)(=O)NCc3ccc(S(N)(=O)=O)cc3)cc2)c1 [Compound 32, N,N-bis(2-methoxyethyl)-3-(3-(4-(N-(4-sulfamoylbenzyl)sulfamoyl)phenyl)ureido)benzimidamide]	210 to 990 nM
N=C(c1cccc(NC(=O)Nc2ccc(S(=O)(=O)NCc3ccc(S(N)(=O)=O)cc3)cc2)c1)N1CCC(C(N)=O)CC1 [Compound 33, 1-(imino(3-(3-(4-(N-(4-sulfamoylbenzyl)sulfamoyl)-phenyl)ureido)phenyl)methyl)piperidine-4-carboxamide]	20 to 200 nM
CCCCN1CCN(C(=N)c2cccc(NC(=O)Nc3ccc(S(=O)(=O)NCc4c(F)ccc(F)c4F)cc3)c2)CC1 [Compound 35, 4-(3-(3-((4-butylpiperazin-1-yl)(imino)methyl)phenyl)ureido)-N-(2,3,6-trifluorobenzyl)benzenesulfonamide]	210 to 990 nM
